In US20150105252A1, “SUBSTITUTED PYRAZOLES AS HERBICIDES” (E I DU PONT DE NEMOURS AND COMPANY, priority 2013, published 2015):

Tests used:
ducksalad = experiment: Test B flood; type: in vivo, Heteranthera limosa; details: 250 g ai/ha, visual rating on 0 to 100 scale (0 no effect, 100 complete control), 13 to 15 days
How it was run: (§1)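 Two-leaf-stage plants, pots flooded (3 cm above soil) and treated through the water, which stayed at that depth. After 13–15 days in greenhouse conditions, visual assessment versus controls: 0 is no effect, 100 complete control, dash means no result.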

foxtail, giant [1] = experiment: Test A postemergence; type: in vivo, Setaria faberii
How it was run: (§2)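 Seeds were sown in a loam soil–sand blend and given a directed soil spray preemergence; postemergence plants at 2–10 cm, one- to two-leaf stage, were sprayed with compound in non-phytotoxic solvent with surfactant. After about 10 days in a greenhouse, injury was visually rated against untreated controls (0 = no effect, 100 = complete control).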

barnyardgrass = experiment: Test A postemergence; type: in vivo, Echinochloa crus-galli
How it was run: as §2

sedge, umbrella = experiment: Test B flood; type: in vivo, Cyperus difformis; details: 250 g ai/ha, visual rating on 0 to 100 scale (0 no effect, 100 complete control), 13 to 15 days
How it was run: as §1

wheat [2] = experiment: Test A postemergence; type: in vivo, Triticum aestivum
How it was run: as §2

wheat [3] = experiment: Test A preemergence; type: in vivo, Triticum aestivum; details: preemergence; for Wheat plant response rating (0 to 100 scale): 125 g ai/ha, visual injury approx. 10 days after treatment; for Wheat plant response rating: 500 g ai/ha, visual injury after approx. 10 days, 0 to 100 scale (0 no effect, 100 complete control)
How it was run: as §2

corn = experiment: Test A preemergence; type: in vivo, Zea mays; details: preemergence; for Corn plant response rating (0 to 100 scale): 125 g ai/ha, visual injury approx. 10 days after treatment; for Corn plant response rating: 500 g ai/ha, visual injury after approx. 10 days, 0 to 100 scale (0 no effect, 100 complete control)
How it was run: as §2

velvetleaf = experiment: Test A preemergence; type: in vivo, Abutilon theophrasti; details: preemergence; for Velvetleaf plant response rating (0 to 100 scale): 125 g ai/ha, visual injury approx. 10 days after treatment; for Velvetleaf plant response rating: 500 g ai/ha, visual injury after approx. 10 days, 0 to 100 scale (0 no effect, 100 complete control)
How it was run: as §2

pigweed = experiment: Test A preemergence; type: in vivo, Amaranthus retroflexus; details: preemergence; for Pigweed plant response rating (0 to 100 scale): 125 g ai/ha, visual injury approx. 10 days after treatment; for Pigweed plant response rating: 500 g ai/ha, visual injury after approx. 10 days, 0 to 100 scale (0 no effect, 100 complete control)
How it was run: as §2

ragweed = experiment: Test C preemergence; type: in vivo, Ambrosia elation; details: preemergence; for Plant response rating, Ragweed: 125 g ai/ha, scale 0 to 100, 0 = no effect, 100 = complete control
How it was run: (§3)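 Scores of 0 (no effect) to 100 (complete control) were assigned by eye after 13–15 days, comparing treated pots with controls. Soil-applied (preemergence) treatments went onto seeds in loam and sand; foliar (postemergence) treatments onto 1- to 4-leaf plants in peat medium.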

morningglory = experiment: Test C preemergence; type: in vivo, Ipomoea coccinea; details: preemergence; for Plant response rating, Morningglory: 125 g ai/ha, scale 0 to 100, 0 = no effect, 100 = complete control
How it was run: as §3

crabgrass, large = experiment: Test A preemergence; type: in vivo, Digitaria sanguinalis; details: preemergence; for Crabgrass, Large plant response rating (0 to 100 scale): 125 g ai/ha, visual injury approx. 10 days after treatment; for Crabgrass, Large plant response rating: 500 g ai/ha, visual injury after approx. 10 days, 0 to 100 scale (0 no effect, 100 complete control)
How it was run: as §2

nutsedge, yellow = experiment: Test C preemergence; type: in vivo, Cyperus esculentus; details: preemergence; for Plant response rating, Nutsedge, Yellow: 125 g ai/ha, scale 0 to 100, 0 = no effect, 100 = complete control
How it was run: as §3

rice = experiment: Test B flood; type: in vivo, Oryza sativa; details: 250 g ai/ha, visual rating on 0 to 100 scale (0 no effect, 100 complete control), 13 to 15 days
How it was run: as §1

foxtail, giant [4] = experiment: Test A preemergence; type: in vivo, Setaria faberii; details: preemergence; for Foxtail, Giant plant response rating (0 to 100 scale): 125 g ai/ha, visual injury approx. 10 days after treatment; for Foxtail, Giant plant response rating: 500 g ai/ha, visual injury after approx. 10 days, 0 to 100 scale (0 no effect, 100 complete control)
How it was run: as §2

[5] = Postemergence, 500 g ai/ha, 0 to 100 scale (0 no effect, 100 complete control)
[6] = postemergence, 125 g ai/ha, about 10 days, visual rating on 0 to 100 scale (0 no effect, 100 complete control)
[7] = 31 g ai/ha, visual rating, scale 0 to 100 (0 no effect, 100 complete control), 13 to 15 days
[8] = 62 g ai/ha, scale 0 to 100 (0 no effect, 100 complete control), 13 to 15 days
[9] = 250 g ai/ha, scale 0 to 100, 0 is no effect, 100 is complete control
[10] = Postemergence, 125 g ai/ha, 0 to 100 scale, 0 no effect, 100 complete control

SMILES	Plant response rating, Ducksalad (ducksalad)	Foxtail, Giant plant response rating (foxtail, giant [1]; [5])	Foxtail, Giant plant response rating (foxtail, giant [1]; [6])	Barnyardgrass plant response rating (barnyardgrass; [5])	Barnyardgrass plant response rating (barnyardgrass; [6])	Plant response rating, Sedge, Umbrella (sedge, umbrella)	Wheat plant response rating (wheat [2]; [5])	Wheat plant response rating (0 to 100 scale) (wheat [3])	Wheat plant response rating (wheat [3])	Corn plant response rating (0 to 100 scale) (corn)	Corn plant response rating (corn)	Velvetleaf plant response rating (0 to 100 scale) (velvetleaf)	Velvetleaf plant response rating (velvetleaf)	Pigweed plant response rating (0 to 100 scale) (pigweed)	Pigweed plant response rating (pigweed)	Ragweed plant response rating (ragweed; [8])	Plant response rating, Ragweed (ragweed; 13 to 15 days)	Ragweed plant response rating (ragweed; [9])	Morningglory plant response rating (morningglory; [7])	Morningglory plant response rating (morningglory; [8])	also measured
CCNC(=O)c1cc(CCCl)n(Cc2ccnc(C(F)(F)F)c2)n1 [Compound 179]	100	90	90	90	70	80	70	10	100	10	50	50	100	100	100	98	98	98	85	95	Wheat plant response rating (wheat [2]; [6]): 30; Ragweed plant response rating (ragweed; [7]): 90; Plant response rating, Morningglory (morningglory; 13 to 15 days): 100; Morningglory plant response rating (morningglory; [9]): 100; Crabgrass, Large plant response rating (0 to 100 scale) (crabgrass, large): 100; Crabgrass, Large plant response rating (crabgrass, large): 100; Nutsedge, Yellow plant response rating (nutsedge, yellow; [7]): 10; Nutsedge, Yellow plant response rating (nutsedge, yellow; [8]): 15; Plant response rating, Nutsedge, Yellow (nutsedge, yellow; 13 to 15 days): 75; Nutsedge, Yellow plant response rating (nutsedge, yellow; [9]): 85; Plant response rating, Rice (rice): 0; Foxtail, Giant plant response rating (0 to 100 scale) (foxtail, giant [4]): 100; Foxtail, Giant plant response rating (foxtail, giant [4]): 100
CCCc1cc(C(=O)NOCC)nn1Cc1ccnc(C(F)(F)F)c1 [Compound 185]	50	90	80	90	80	80	80	70	90	10	30	70	100	0	0	75	95	100	15	75	Wheat plant response rating (wheat [2]; [10]): 0; Ragweed plant response rating (ragweed; [7]): 5; Plant response rating, Morningglory (morningglory; 13 to 15 days): 85; Morningglory plant response rating (morningglory; [9]): 98; Crabgrass, Large plant response rating (0 to 100 scale) (crabgrass, large): 100; Crabgrass, Large plant response rating (crabgrass, large): 100; Nutsedge, Yellow plant response rating (nutsedge, yellow; [7]): 5; Nutsedge, Yellow plant response rating (nutsedge, yellow; [8]): 40; Plant response rating, Nutsedge, Yellow (nutsedge, yellow; 13 to 15 days): 75; Nutsedge, Yellow plant response rating (nutsedge, yellow; [9]): 75; Plant response rating, Rice (rice): 10; Foxtail, Giant plant response rating (0 to 100 scale) (foxtail, giant [4]): 100; Foxtail, Giant plant response rating (foxtail, giant [4]): 100
CCOc1cc(C(=O)NC(C)C)nn1Cc1ccnc(C(F)(F)F)c1 [Compound 188]	90	90	90	90	90	90	90	100	100	100	100	100	100	100	100	95	100	98	98	98	Wheat plant response rating (wheat [2]; [10]): 80; Ragweed plant response rating (ragweed; [7]): 75; Plant response rating, Morningglory (morningglory; 13 to 15 days): 98; Morningglory plant response rating (morningglory; [9]): 100; Crabgrass, Large plant response rating (0 to 100 scale) (crabgrass, large): 100; Crabgrass, Large plant response rating (crabgrass, large): 100; Nutsedge, Yellow plant response rating (nutsedge, yellow; [7]): 30; Nutsedge, Yellow plant response rating (nutsedge, yellow; [8]): 65; Plant response rating, Nutsedge, Yellow (nutsedge, yellow; 13 to 15 days): 95; Nutsedge, Yellow plant response rating (nutsedge, yellow; [9]): 98; Plant response rating, Rice (rice): 60; Foxtail, Giant plant response rating (0 to 100 scale) (foxtail, giant [4]): 100; Foxtail, Giant plant response rating (foxtail, giant [4]): 100
CCOc1cc(C(=O)NC2CC2)nn1Cc1ccnc(C(F)(F)F)c1 [Compound 189]	85	90	90	90	90	90	90	90	100	80	100	100	100	0	0	98	100	98	95	98	Wheat plant response rating (wheat [2]; [10]): 80; Ragweed plant response rating (ragweed; [7]): 85; Plant response rating, Morningglory (morningglory; 13 to 15 days): 98; Morningglory plant response rating (morningglory; [9]): 100; Crabgrass, Large plant response rating (0 to 100 scale) (crabgrass, large): 100; Crabgrass, Large plant response rating (crabgrass, large): 100; Nutsedge, Yellow plant response rating (nutsedge, yellow; [7]): 25; Nutsedge, Yellow plant response rating (nutsedge, yellow; [8]): 80; Plant response rating, Nutsedge, Yellow (nutsedge, yellow; 13 to 15 days): 85; Nutsedge, Yellow plant response rating (nutsedge, yellow; [9]): 95; Plant response rating, Rice (rice): 45; Foxtail, Giant plant response rating (0 to 100 scale) (foxtail, giant [4]): 100; Foxtail, Giant plant response rating (foxtail, giant [4]): 100
CCONC(=O)c1cc(OCC)n(Cc2ccnc(C(F)(F)F)c2)n1 [Compound 195]	95	100	80	90	70	95	90	80	100	0	90	80	100	100	100	85	90	98	35	100	Wheat plant response rating (wheat [2]; [10]): 90; Plant response rating, Morningglory (morningglory; 13 to 15 days): 100; Morningglory plant response rating (morningglory; [9]): 100; Crabgrass, Large plant response rating (0 to 100 scale) (crabgrass, large): 100; Crabgrass, Large plant response rating (crabgrass, large): 100; Nutsedge, Yellow plant response rating (nutsedge, yellow; [7]): 20; Nutsedge, Yellow plant response rating (nutsedge, yellow; [8]): 85; Plant response rating, Nutsedge, Yellow (nutsedge, yellow; 13 to 15 days): 85; Nutsedge, Yellow plant response rating (nutsedge, yellow; [9]): 95; Plant response rating, Rice (rice): 10; Foxtail, Giant plant response rating (0 to 100 scale) (foxtail, giant [4]): 90; Foxtail, Giant plant response rating (foxtail, giant [4]): 90
